For 32 compounds, melting point and IC50 results are on record in US6534522B2, “Subtype-selective NMDA receptor ligands and the use thereof” (Warner-Lambert Company, priority 1995, dated 2003).

Structures are written as SMILES. Structures can show the parent of a compound that is named as a salt.

In one series the target is NR1A/2A NMDA receptor (Rattus norvegicus, UniProt P35439+Q00959). In words: Xenopus oocyte expression system, two-electrode voltage clamp, NR1A/2A. Format: cell-based. The note with it: cloned NR1A/2A subunits expressed in Xenopus oocytes; inhibition of agonist-evoked membrane current; read-out: 1A/2A IC50. An excerpt: (§1) Electrophysiological assays may be utilized to characterize the actions of potential subtype-selective ligands at NMDA receptors expressed in Xenopus oocytes. The ligand may be assayed at the different subunit combinations of cloned rat NMDA receptors corresponding to the four putative NMDA receptor subtypes (Moriyoshi et al., Nature (Lond.) 354:31-37 (1991); Monyer et al., Science (Washington, D.C.) 256:1217-1221 (1992); Kutsuwada et al., Nature (Lond.) 358:36-41 (1992); Sugihara et al., Biochem. Biophys. Res. Comm. 185:826-832 (1992)).
(§2) Using fixed saturating concentrations of agonists (glutamate 100 μM, glycine 1-10 μM depending on subunit combination), the inhibitory potency of a putative subtype-selective ligand may be assayed at the NMDA receptors assembled from NR1A/2A, NR1A/2B, NR1A/2C and NR1A/2D subunit combinations.
(§3) The Xenopus oocyte expression system. Mature female Xenopus laevis were anaesthetized (20-40 min) using 0.15% 3-aminobenzoic acid ethyl ester (MS-222) and 2-4 ovarian lobes were surgically removed. Oocytes at developmental stages IV-VI (Dumont, J. N., J. Morphol. 136:153-180 (1972)), were dissected from the ovary still surrounded by enveloping ovarian tissues. Follicle-enclosed oocytes were micro-injected with 1:1 mixtures of cRNA:NR1A+NR2A, 2B, 2C or 2D; injecting ˜2, 5, or 20 ng of RNA encoding each receptor subunit. NR1A encoding cRNA was injected alone at ˜20 ng. Oocytes were stored in Barth's medium containing (in mM): NaCl, 88; KCl, 1; CaCl2, 0.41; Ca(NO3)2, 0.33; MgSO4, 0.82; NaHCO3, 2.4; HEPES 5; pH 7.4, with 0.1 mg/mL gentamycin sulphate. While oocytes were still surrounded by enveloping ovarian tissues the Barth's medium was supplemented with 0.1% bovine serum. Oocytes were defolliculated 1-2 days following injections by treatment with collagenase (0.5 mg/mL Sigma Type I for 0.5-1 hr) (Miledi and Woodward, J. Physiol. (Lond.) 416:601-621 (1989)) and subsequently stored in serum-free medium.
(§4) Electrical recordings were made using a conventional two-electrode voltage clamp (Dagan TEV-200) over periods ranging between 3-21 days following injection. Oocytes were placed in a 0.1 mL recording chamber continuously perfused (5-15 mL min^−1) with frog Ringer's solution containing (in mM): NaCl, 115; KCl, 2; CaCl2, 1.8; HEPES, 5; pH 7.4. Drugs were applied by bath perfusion. When using the more rapid flow rates, half-times for mid-chamber solution changes were between 2-3 sec, however, exchange rates for drug solutions at the oocyte surface (i.e. beneath the vitelline envelope and among the tangles of microvilli) were probably considerably longer (Woodward et al., Mol. Pharmacol. 41:89-103 (1992)). Zero-Ca^2+/Ba^2+ Ringer had the composition (in mM): NaCl, 115; KCl, 2; BaCl2, 1.8; HEPES, 5; pH 7.4. Intraoocyte injections were made by pneumatic pressure-pulse ejection from micropipettes (Miledi and Parker, J. Physiol. (Lond.) 357:173-183 (1984)). Injection solutions of EGTA (40-400 mM) and BAPTA (50-500 mM) were made up in H2O, pH adjusted to 7.4 with KOH or HCl, and filtered to minimize plugging (Acrodisc-13, […]). Pressure was set between 200-400 kPa. The volume of injections was regulated by adjusting the time of pulses (0.1-1 sec) and was estimated by measuring the diameters of ejected droplets.
(§5) Concentration-inhibition curves were fit with equation 2.
(§6) I/Icontrol=1/(1+([antagonist]/10^−pIC50)^n) Eq. 2
(§7) in which Icontrol is the current evoked by agonists alone, pIC50=−log IC50, […] is the concentration of antagonist that produces half maximal inhibition, and n is the slope factor. For incomplete curves analysis by fitting was unreliable and IC50 values were calculated by simple regression over linear portions of the curves (Origin: Microcal Software).
(§8) Drugs were initially dissolved at concentrations of 10-100 mM in DMSO. Dilutions were then made to generate a series of DMSO stock solutions over the range 10 μM to 100 mM. Working solutions were made by 1000-3000 fold dilution of stocks into Ringer. […]

The next series deals with NR1A/2B NMDA receptor (Rattus norvegicus, UniProt P35439+Q00960). In words: Xenopus oocyte expression system, two-electrode voltage clamp, NR1A/2B. It counts as cell-based. The note with it: cloned NR1A/2B subunits expressed in Xenopus oocytes; inhibition of agonist-evoked membrane current; read-out: 1A/2B IC50.
Source text: as §1, §2, §3, §4, §5, §6, §7, §8
(In general: Two-electrode voltage clamp is typically applied to oocytes expressing channels or transporters.)

The target in a further series is NR1A/2C NMDA receptor (Rattus norvegicus, UniProt P35439+Q00961). In words: Xenopus oocyte expression system, two-electrode voltage clamp, NR1A/2C. It counts as cell-based. The note with it: cloned NR1A/2C subunits expressed in Xenopus oocytes; inhibition of agonist-evoked membrane current; read-out: 1A/2C IC50.
Source text: as §1, §2, §3, §4, §5, §6, §7, §8

Chain of NR1A/2C NMDA receptor (Q00961 20-1237, other chains not shown): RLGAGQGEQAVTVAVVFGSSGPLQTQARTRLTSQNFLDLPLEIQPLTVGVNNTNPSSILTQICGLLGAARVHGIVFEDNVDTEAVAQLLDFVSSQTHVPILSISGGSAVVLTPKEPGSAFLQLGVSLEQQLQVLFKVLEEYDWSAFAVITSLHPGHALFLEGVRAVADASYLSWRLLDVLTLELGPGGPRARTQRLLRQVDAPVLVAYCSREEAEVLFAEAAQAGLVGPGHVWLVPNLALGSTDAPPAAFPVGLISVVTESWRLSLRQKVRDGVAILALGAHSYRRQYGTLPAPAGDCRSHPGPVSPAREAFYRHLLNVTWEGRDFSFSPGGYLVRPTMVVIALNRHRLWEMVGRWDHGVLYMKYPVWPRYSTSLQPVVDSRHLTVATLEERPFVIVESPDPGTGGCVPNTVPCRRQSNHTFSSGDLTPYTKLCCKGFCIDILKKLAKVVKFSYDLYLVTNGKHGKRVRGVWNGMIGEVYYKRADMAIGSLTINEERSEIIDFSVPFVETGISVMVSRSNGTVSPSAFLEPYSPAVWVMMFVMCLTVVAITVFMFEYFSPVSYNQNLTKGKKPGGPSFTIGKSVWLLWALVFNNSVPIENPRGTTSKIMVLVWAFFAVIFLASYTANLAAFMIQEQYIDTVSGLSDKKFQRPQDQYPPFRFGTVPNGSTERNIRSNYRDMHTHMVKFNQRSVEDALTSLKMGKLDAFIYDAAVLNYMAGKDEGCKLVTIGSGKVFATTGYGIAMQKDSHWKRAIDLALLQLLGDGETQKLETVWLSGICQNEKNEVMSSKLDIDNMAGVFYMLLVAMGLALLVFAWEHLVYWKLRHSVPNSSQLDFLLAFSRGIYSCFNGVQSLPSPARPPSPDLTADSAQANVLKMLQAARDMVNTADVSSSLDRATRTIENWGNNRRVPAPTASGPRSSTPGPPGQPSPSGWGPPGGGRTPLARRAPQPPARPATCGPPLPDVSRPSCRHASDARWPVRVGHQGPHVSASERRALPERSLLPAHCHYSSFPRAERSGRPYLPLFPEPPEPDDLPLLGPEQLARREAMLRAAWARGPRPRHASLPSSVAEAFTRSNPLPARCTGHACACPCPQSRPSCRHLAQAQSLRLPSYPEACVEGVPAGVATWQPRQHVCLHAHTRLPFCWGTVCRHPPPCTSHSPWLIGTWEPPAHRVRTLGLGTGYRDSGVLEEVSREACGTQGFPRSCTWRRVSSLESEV
Chain of NR1A/2B NMDA receptor (Q00960 27-1482, other chains not shown): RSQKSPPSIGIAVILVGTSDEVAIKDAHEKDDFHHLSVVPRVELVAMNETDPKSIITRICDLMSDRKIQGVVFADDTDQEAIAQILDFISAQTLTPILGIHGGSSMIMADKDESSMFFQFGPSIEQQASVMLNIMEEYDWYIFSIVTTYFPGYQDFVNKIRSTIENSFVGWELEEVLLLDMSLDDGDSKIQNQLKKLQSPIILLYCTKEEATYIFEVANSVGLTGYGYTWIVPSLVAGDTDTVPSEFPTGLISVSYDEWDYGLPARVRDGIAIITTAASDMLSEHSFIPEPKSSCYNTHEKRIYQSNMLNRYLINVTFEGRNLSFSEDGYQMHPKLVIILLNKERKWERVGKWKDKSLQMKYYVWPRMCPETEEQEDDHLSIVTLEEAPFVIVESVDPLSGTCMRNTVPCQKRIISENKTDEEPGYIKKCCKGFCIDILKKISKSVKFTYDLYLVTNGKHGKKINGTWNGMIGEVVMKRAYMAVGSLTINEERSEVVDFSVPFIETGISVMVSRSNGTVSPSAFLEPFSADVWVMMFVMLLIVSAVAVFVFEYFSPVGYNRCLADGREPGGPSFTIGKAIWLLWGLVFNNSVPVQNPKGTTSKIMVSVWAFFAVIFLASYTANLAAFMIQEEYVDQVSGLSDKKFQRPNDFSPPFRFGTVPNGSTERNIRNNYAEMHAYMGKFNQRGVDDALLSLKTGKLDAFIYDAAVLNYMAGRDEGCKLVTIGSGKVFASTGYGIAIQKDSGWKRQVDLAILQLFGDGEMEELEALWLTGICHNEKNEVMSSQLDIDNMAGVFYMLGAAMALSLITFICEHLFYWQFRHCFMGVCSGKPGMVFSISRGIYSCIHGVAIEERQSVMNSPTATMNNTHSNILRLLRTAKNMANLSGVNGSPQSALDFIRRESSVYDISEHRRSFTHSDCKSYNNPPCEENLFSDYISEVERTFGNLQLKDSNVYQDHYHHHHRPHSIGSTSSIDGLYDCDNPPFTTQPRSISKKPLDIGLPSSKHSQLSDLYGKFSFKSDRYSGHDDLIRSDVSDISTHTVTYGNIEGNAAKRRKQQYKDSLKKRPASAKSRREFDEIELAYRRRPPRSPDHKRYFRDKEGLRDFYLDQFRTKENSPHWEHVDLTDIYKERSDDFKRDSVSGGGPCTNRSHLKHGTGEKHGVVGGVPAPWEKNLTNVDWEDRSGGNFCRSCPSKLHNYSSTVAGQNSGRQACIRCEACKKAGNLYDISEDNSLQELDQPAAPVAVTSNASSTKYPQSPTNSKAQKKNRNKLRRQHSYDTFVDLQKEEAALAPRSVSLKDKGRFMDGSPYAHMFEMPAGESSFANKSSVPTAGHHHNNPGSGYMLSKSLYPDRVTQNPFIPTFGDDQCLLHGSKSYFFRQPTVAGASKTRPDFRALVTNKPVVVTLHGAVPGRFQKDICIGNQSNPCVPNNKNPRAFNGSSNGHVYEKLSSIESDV
Chain of NR1A/2A NMDA receptor (Q00959 20-1464 limits assumed, other chains not shown): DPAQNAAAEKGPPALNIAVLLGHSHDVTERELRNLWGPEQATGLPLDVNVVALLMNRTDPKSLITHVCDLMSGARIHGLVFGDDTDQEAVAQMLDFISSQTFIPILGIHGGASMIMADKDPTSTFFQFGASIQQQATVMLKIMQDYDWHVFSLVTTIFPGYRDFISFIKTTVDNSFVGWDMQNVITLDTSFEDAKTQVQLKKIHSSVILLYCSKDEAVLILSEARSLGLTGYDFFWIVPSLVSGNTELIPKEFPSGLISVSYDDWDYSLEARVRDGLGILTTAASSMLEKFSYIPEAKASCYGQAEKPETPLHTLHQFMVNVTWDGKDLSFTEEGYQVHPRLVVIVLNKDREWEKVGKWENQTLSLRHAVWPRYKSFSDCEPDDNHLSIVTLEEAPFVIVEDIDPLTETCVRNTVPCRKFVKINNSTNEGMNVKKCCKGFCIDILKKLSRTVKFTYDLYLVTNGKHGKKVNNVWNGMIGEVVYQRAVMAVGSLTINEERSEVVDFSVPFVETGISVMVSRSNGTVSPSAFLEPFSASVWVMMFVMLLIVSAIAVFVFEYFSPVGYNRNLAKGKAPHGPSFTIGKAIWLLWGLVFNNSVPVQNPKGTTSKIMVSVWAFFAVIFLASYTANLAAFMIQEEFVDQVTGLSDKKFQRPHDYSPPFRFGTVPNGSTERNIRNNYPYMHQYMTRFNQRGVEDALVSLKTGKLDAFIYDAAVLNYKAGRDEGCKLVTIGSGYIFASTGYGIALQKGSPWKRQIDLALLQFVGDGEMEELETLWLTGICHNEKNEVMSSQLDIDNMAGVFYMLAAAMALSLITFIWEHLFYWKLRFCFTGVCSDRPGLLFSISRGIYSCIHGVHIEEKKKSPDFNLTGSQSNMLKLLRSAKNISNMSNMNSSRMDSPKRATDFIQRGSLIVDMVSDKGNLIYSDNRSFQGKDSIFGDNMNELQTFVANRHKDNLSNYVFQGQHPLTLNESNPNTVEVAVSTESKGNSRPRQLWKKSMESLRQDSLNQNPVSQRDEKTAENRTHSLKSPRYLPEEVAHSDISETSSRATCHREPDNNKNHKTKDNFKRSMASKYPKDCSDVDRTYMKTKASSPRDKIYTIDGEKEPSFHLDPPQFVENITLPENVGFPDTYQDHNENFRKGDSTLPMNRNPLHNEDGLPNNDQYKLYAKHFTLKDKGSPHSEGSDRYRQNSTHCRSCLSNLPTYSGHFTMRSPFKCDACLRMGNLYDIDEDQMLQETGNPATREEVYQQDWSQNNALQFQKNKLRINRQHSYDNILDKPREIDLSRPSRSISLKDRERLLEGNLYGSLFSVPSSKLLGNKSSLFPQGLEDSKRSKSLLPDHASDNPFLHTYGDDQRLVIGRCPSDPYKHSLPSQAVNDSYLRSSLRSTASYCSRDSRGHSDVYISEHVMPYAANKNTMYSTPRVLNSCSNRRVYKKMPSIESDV

For orientation: melting point means the temperature of the solid-liquid transition. On to `Br.c1ccc(CCN2CCCC(Cc3ccccc3)C2)cc1` (centres unmarked), for which the melting point was 137 to 142 °C. The compound `CC(O)CCN1CCC(Cc2ccc([N+](=O)[O-])cc2)CC1.Cl` (centres unmarked) [Ex. 101, 4-(4-nitrobenzyl)-1-(3-hydroxybutyl) piperidine hydrochloride] displayed a melting point of 105 to 107 °C. The IC50 on NR1A/2A NMDA receptor came to 260 µM. Also, on NR1A/2B NMDA receptor, the IC50 was determined as 280 µM. The compound `Br.c1ccc(CC2CCCN(CCCOc3ccccc3)C2)cc1` (centres unmarked) displayed a melting point of 148 to 149 °C. With `c1ccc(CCCN2CCc3c([nH]c4ccccc34)C2)cc1` [Ex. 26, 2-(3-Phenylpropyl)-1,2,3,4-tetrahydro-9H-pyrido[3,4-b]indole], the melting point is 130 to 131 °C. Besides, the IC50 at NR1A/2A NMDA receptor was determined as 30 µM. Besides, the IC50 on NR1A/2B NMDA receptor was found to be 15 µM. Also, at NR1A/2C NMDA receptor, the IC50 was determined as 105 µM.

Take `Cl.O=C(c1ccc(F)cc1)C1CCN(CCOc2ccc(F)cc2)CC1`: the melting point lay in the range of 138 to 141 °C. `Br.COc1ccc(CCN2CCCC(Cc3ccccc3)C2)cc1` (centres unmarked): the melting point was 74 to 78 °C. As to `Br.c1ccc(CC2CCCN(CCOc3ccccc3)C2)cc1` (centres unmarked), the melting point lay within 93 to 94 °C. `Br.Fc1ccc(OCCNN2CCC(Cc3ccc(Cl)cc3)CC2)cc1` [Ex. 106, 4-(4-Chlorobenzyl)-1-(N-(2-(4-fluorophenoxy)ethyl)amino)piperidine hydrobromide]: the melting point is 214 to 215 °C (dec.). Besides, the IC50 at NR1A/2A NMDA receptor is 8.5 µM. Besides, the IC50 at NR1A/2B NMDA receptor turned out to be 5 µM. The IC50 on NR1A/2C NMDA receptor worked out at 23 µM. Consider `O=c1[nH]c2ccc(OCCCN3CCc4ccccc4C3)cc2[nH]1` (as salt: hydrochloride) [Ex. 108, N-(3-(2-oxobenzimidazol-5-oxy)propyl)-1,2,3,4-tetrahydroisoquinoline], for which the melting point was 210 to 215 °C (dec.). Turning to `Cl.Oc1ccc(OCCN2CCC(C[C@]34C[C@H]5C[C@H](C[C@H](C5)C3)C4)CC2)cc1` [Ex. 107, 4-(1-Adamantylmethyl)-1-(2-(4-hydroxyphenoxy)ethyl)piperidine], the melting point was 178 to 179 °C. In addition, at NR1A/2A NMDA receptor, the IC50 came out at 250 µM. Further, on NR1A/2B NMDA receptor, the IC50 is 160 µM. The IC50 on NR1A/2C NMDA receptor was found to be 75 µM.

For the compound `CC(O)CCN1CCC(Cc2ccc(N)cc2)CC1` (centres unmarked) (as salt: hydrochloride) [Ex. 105, 4-(4-aminobenzyl)-1-(3-hydroxy-butyl) piperidine hydrochloride], the melting point fell in the range of 155 to 160 °C. Same read-out and setting: the figure for `OCCCN1CCC(Cc2ccc(F)cc2)CC1` (as salt: hydrobromid) [Ex. 90, 4-(4-Fluorobenzyl)-1-(3-hydroxypropyl) piperidine hydrobromide] is 108 to 110 °C. The same measure, in the same setting: in the case of `Clc1ccc(CC2CCN(C3CCc4ccccc4C3)CC2)cc1` (centres unmarked) (as salt: hydrochloride) [Example 98, 4-(4-Chlorobenzyl)-1-(tetralin-2-yl)piperidine hydrochloride] it was 243 to 245 °C (dec.); in that of `OCCCN1CCC(Cc2ccc(Cl)cc2)CC1` (as salt: hydrobromid) [Ex. 89, 4-(4-Chlorobenzyl)-1-(3-hydroxypropyl) piperidine hydrobromide], 139.5 to 140 °C. Still for that read-out and setting: in the case of `O=C(CCCN1CCc2c([nH]c3ccccc23)C1)c1ccc(F)cc1` it was 188 to 190 °C; in that of `O=C(c1ccc(F)cc1)C1CCN(CCCO)CC1` [Example 77, 4-(p-fluorobenzoyl)-1-(3-hydroxypropyl)piperidine], 106 to 108 °C. In turn, `OC1(Cc2ccccc2)CCN(CCCc2ccccc2)CC1` (as salt: hydrochloride) [Ex. 16, 4-Benzyl-4-hydroxy-1-(3-phenylpropyl)piperidine] yielded a melting point of 156 to 157 °C.

As to `Br.Clc1ccc(CCN2CCCC(Cc3ccccc3)C2)cc1` (centres unmarked), the melting point was 143 to 145 °C. On the same count and under the same terms, the figure for `Br.c1ccc(CCCCN2CCCC(Cc3ccccc3)C2)cc1` (centres unmarked) is 105 to 107 °C; for `C[C@@H](CO)CN1CCC(Cc2ccc(F)cc2)CC1` (as salt: hydrochloride) [Ex. 92, (R)-4-(4-Fluorobenzyl)-1-(3-hydroxy-2-methylpropyl) piperidine hydrochloride] it is 128 to 130 °C; for `COc1ccc(C(=O)C2CCN(CCCO)CC2)cc1` (as salt: hydrobromid) [Example 78, 1-(3-Hydroxypropyl)-4-(4-methoxybenzoyl)piperidine] it is 148 to 151 °C. `OCCCN1CCC(Cc2ccccc2)CC1` (as salt: hydrobromid) [Ex. 83, 4-Benzyl-1-(3-hydroxypropyl)piperidine hydrobromide] returned a melting point of 122 to 124 °C. Same read-out and setting: in the case of `CC(O)CCN1CCC(Cc2ccc(F)cc2)CC1` (centres unmarked) (as salt: hydrochloride) [Ex. 91, 4-(4-Fluorobenzyl)-1-(3-hydroxybutyl) piperidine hydrochloride] it was 99 to 103 °C; in that of `c1ccc(OCCCN2CCc3ccccc3C2)cc1` (as salt: hydrochloride) [Ex. 19, N-(3-Phenoxypropyl)-1,2,3,4-tetrahydroisoquinoline], 194 to 195 °C. Turning to `O=C(c1ccccc1)C1CCN(CCOc2ccccc2)CC1` (as salt: hydrochloride) [Ex. 27, 4-Benzoyl-1-(2-phenoxyethyl)piperidine], the melting point was in the range of 161 to 162 °C. Same read-out and setting: the figure for `OCCCCN1CCC(Cc2ccccc2)CC1` (as salt: hydrobromid) [Ex. 86, 4-Benzyl-1-(4-hydroxybutyl)piperidine hydrobromide] is 129 to 130 °C; for `O=C(c1ccccc1O)C1CCN(CCCO)CC1` [Example 79, 4-(2-Hydroxybenzoyl)-1-(3-hydroxypropyl)piperidine] it is 77 to 80 °C. As to `Fc1cccc(C[P+](c2ccccc2)(c2ccccc2)c2ccccc2)c1` [Ex. 8, m-Fluorobenzyltriphenylphosphonium bromide], the results for the IC50 at NR1A/2A NMDA receptor, on NR1A/2B NMDA receptor and at NR1A/2C NMDA receptor were more than 300 µM, 65 µM and more than 300 µM, respectively. For `COc1ccc(CC2CCN(CCCO)CC2)cc1` (as salt: hydrobromid) [Ex. 93, 1-(3-Hydroxypropyl)-4-(4-methoxybenzyl) piperidine hydrobromide], the melting point lay within 129 to 131 °C.

In turn, `Br.FC(F)(F)c1cccc(CCN2CCCC(Cc3ccccc3)C2)c1` (centres unmarked) displayed a melting point of 152 to 154 °C. The same measure, in the same setting: the figure for `c1ccc(OCCN2CCc3ccccc3C2)cc1` (as salt: hydrochloride) [Ex. 18, N-(2-Phenoxyethyl)-1,2,3,4-tetrahydroisoquinoline] is 181 to 182 °C. Regarding `NCCCN1CCC(Cc2ccccc2)CC1` [Ex. 47, 4-Benzyl-1-(3-aminopropyl) piperidine], the IC50 was 270 µM at NR1A/2A NMDA receptor, 40 µM on NR1A/2B NMDA receptor and more than 300 µM at NR1A/2C NMDA receptor.
